test system: environmental isolates; test: Effect of Polymyxin B, Acriflavine HCl and Ceftazidime on environmental isolates; type: cell-based; details: used together in the Selective medium
Experimental: Nineteen non-Listeria organisms isolated from environmental sponges from meat and dairy manufacturing facilities were inoculated separately into Tryptic Soy broth (TSB, Difco) and incubated for 24 h at 30° C. The isolates were screened for growth in Selective and Non-Selective media by monitoring absorbance via a spectrophotometer. 900 μl of test media and either 100 μl of culture or Butterfield's Buffer (International BioProducts) were added to a cuvette and incubated at 30° C. Absorbance readings were taken at 660 nm on a spectrophotometer (Shimadzu UV160U) at To, 2 h, 4 h, and 6 h and compared to the corresponding blank cuvette with buffer. Growth was scored by absorbance readings.
The Non-Selective medium consisted of Universal Preenrichment Broth (UPB, Difco) with 0.4% Yeast Extract (YE, Difco). The Selective medium consisted of Universal Preenrichment Broth (UPB, Difco) with 0.4% Yeast Extract (YE, Difco), 0.001% Polymymin B, 0.0005% Acriflavine HCl, and 0.002% Ceftazidime.
Several environmental organisms screened via spectrophotometer were selected to test in mixed culture with Listeria. Environmental isolates were inoculated separately into TSB and incubated for 24 h at 30° C. The growth level was determined by serial dilutions plated on Tryptic Soy agar (TSA, Difco) and incubated at 30° C. for 24 h. Based on the cell counts, the culture was diluted in Butterfield's Buffer and a volume of the diluted culture targeting an initial cell count of 1000 CFU/mL was inoculated into the test media.
30 mL of Non-Selective or Selective medium was added to 10 ml of Butterfield's Buffer to simulate the addition of media to environment sponge. A Non-Selective and Selective medium was inoculated with Listeria culture alone, environmental isolate alone, and Listeria and environment isolate combined. The media were incubated in a water bath at 30° C. Serial dilutions of inoculated media were collected at To and 8 h and plated on Oxford Media Base and a differential media particular to the environmental isolate being tested (see Table 2). […]

| Compound | Effectiveness as selective agents against environmental isolates (in words) |
| --- | --- |
| Polymyxin B | effective selective agents against many environmental isolates |
| CC(C)(O/N=C(\C(=O)N[C@@H]1C(=O)N2C(C(=O)[O-])=C(C[n+]3ccccc3)CS[C@H]12)c1csc(N)n1)C(=O)O [Ceftazidime] | effective selective agents against many environmental isolates |
| Acriflavine HCl | effective selective agents against many environmental isolates |

Source: patent US20060286625A1, “Rapid enrichment for Listeria” (Kraft Foods Holdings, Inc., priority 2005, published 2006)
